Measured values published in patent US11708348B2, “Protease inhibitors for treatment of coronavirus infections” (The Scripps Research Institute, priority 2021, dated 2023).
Where two headings read alike, the source gives them in different places.

Tested on: SARS-CoV-2 strain USA-WA1/2020
Experiment: microbe, parasite or virus in culture
Assay type: cell-based
Settings: Severe acute respiratory syndrome coronavirus 2, HeLa-ACE2, 24 h, read-out: EC50, uM (Hela)
[1] = HeLa-ACE2 cells, SARS-CoV-2 infection, 24 h
[2] = HeLa-ACE2 cells, SARS-CoV-2 infection, 24 h, class symbols

In the case of CC(C)C[C@@H](NC(=O)OC(C)(C)C)C(=O)N1CC2(CC2)C[C@H]1C(=O)N[C@@H](C[C@@H]1CCNC1=O)C(=O)COC(F)(F)F [Compound 643, tert-butyl ((R)-4-methyl-1-oxo-1-((S)-6-(((S)-3-oxo-1-((S)-2-oxopyrrolidin-3-yl)-4-(trifluoromethoxy)butan-2-yl)carbamoyl)-5-azaspiro[2.4]heptan-5-yl)pentan-2-yl)carbamate], the EC50 [1] is reported as < 0.05 µM.

In the case of O=C(Nc1ccccc1C(F)(F)F)C(=O)N1CC2(CC2)C[C@H]1C(=O)N[C@@H](C[C@@H]1CCNC1=O)C(=O)COC(F)(F)F [Compound 576, (S)-N-((S)-3-oxo-1-((S)-2-oxopyrrolidin-3-yl)-4-(trifluoromethoxy)butan-2-yl)-5-(2-oxo-2-((2-(trifluoromethyl)-phenyl)amino)acetyl)-5-azaspiro[2.4]-heptane-6-carboxamide], the EC50 [1] is reported as < 0.05 µM.

For [2H]C([2H])([2H])C([2H])([2H])CCCC(=O)N1CC2(CC2)C[C@H]1C(=O)N[C@@H](C[C@@H]1CCNC1=O)C(=O)COC(F)(F)F [Compound 755, (S)-5-(hexanoyl-5,5,6,6,6-d5)-N-((S)-3-oxo-1-((S)-2-oxopyrrolidin-3-yl)-4-(trifluoromethoxy)butan-2-yl)-5-azaspiro[2.4]heptane-6-carboxamide], the EC50 [1] was < 0.05 µM.

In the case of COc1cccc2[nH]c(C(=O)N[C@@H](CC(C)C)C(=O)N[C@@H](C[C@@H]3CCNC3=O)C(=O)COCC(F)(F)F)cc12 [Compound 162, 4-methoxy-N-((S)-4-methyl-1-oxo-1-(((S)-3-oxo-1-((S)-2-oxopyrrolidin-3-yl)-4-(2,2,2-trifluoroethoxy)butan-2-yl)amino)pentan-2-yl)-1H-indole-2-carboxamide], the EC50 (HeLa-ACE2 cells, SARS-CoV-2 infection, 24 h, cells given as a bound) is reported as > 1 µM.

With CC(F)(F)C(F)(F)CC(=O)N1CC2(CC2)C[C@H]1C(=O)N[C@@H](C[C@@H]1CCNC1=O)C(=O)COC(F)(F)F [Compound 713, (S)-N-((S)-3-oxo-1-((S)-2-oxopyrrolidin-3-yl)-4-(trifluoromethoxy)butan-2-yl)-5-(3,3,4,4-tetrafluoropentanoyl)-5-azaspiro[2.4]heptane-6-carboxamide] the EC50 [1] was 0.05 to 0.2 µM.

In the case of O=C1NCC[C@H]1C[C@H](NC(=O)[C@@H]1[C@H]2CCC[C@H]2CN1C(=O)c1cc(C(F)(F)F)on1)C(=O)COC(F)(F)F [Compound 483, (1S,3aR,6aS)-N-((S)-3-oxo-1-((S)-2-oxopyrrolidin-3-yl)-4-(trifluoromethoxy)butan-2-yl)-2-(5-(trifluoromethyl)-isoxazole-3-carbonyl)octahydro-cyclopenta[c]pyrrole-l-carboxamide], the EC50 [1] is reported as 0.05 to 0.2 µM.

For CC(C)C[C@H](NC(=O)C(=O)Nc1ccccc1C(C)C)C(=O)N[C@@H](C[C@@H]1CCNC1=O)C(=O)COc1c(F)c(F)cc(F)c1F [Compound 86, Nl-(2-isopropylphenyl)-N2-((S)-4-methyl-1-oxo-1-(((S)-3-oxo-1-((S)-2-oxopyrrolidin-3-yl)-4-(2,3,5,6-tetrafluorophenoxy)butan-2-yl)amino)pentan-2-yl)oxalamide], the EC50 [2] was < 0.05 µM.

In the case of O=C(N[C@@H](CC1CC1)C(=O)N[C@@H](C[C@@H]1CCNC1=O)C(=O)COC(F)(F)F)c1nnc(Nc2ccccc2)o1 [Compound 461, N-((S)-3-cyclopropyl-1-oxo-1-(((S)-3-oxo-1-((S)-2-oxopyrrolidin-3-yl)-4-(trifluoromethoxy)butan-2-yl)amino)propan-2-yl)-5-(phenylamino)-l,3,4-oxadiazole-2-carboxamide], the EC50 [1] is reported as 0.2 to 0.5 µM.

CC(C)C[C@H](NC(=O)[C@H](O)C(C)(C)C)C(=O)N[C@@H](C[C@@H]1CCNC1=O)C(=O)COC(F)(F)F [Compound 341, (S)-2-((R)-2-hydroxy-3,3-dimethylbutanamido)-4-methyl-N-((S)-3-oxo-1-((S)-2-oxopyrrolidin-3-yl)-4-(trifluoromethoxy)butan-2-yl)pentanamide] was tested, and the EC50 [2] was 0.05 to 0.2 µM.

In the case of CC[C@H](O)C(=O)N1C[C@H]2[C@@H]([C@H]1C(=O)N[C@@H](C[C@@H]1CCNC1=O)C(=O)COC(F)(F)F)C2(C)C [Compound 370, (1R,2S,5S)-3-((S)-2-hydroxybutanoyl)-6,6-dimethyl-N-((S)-3-oxo-1-((S)-2-oxopyrrolidin-3-yl)-4-(trifluoromethoxy)butan-2-yl)-3-azabicyclo[3.1.0]-hexane-2-carboxamide], the EC50 [2] is reported as 0.05 to 0.2 µM.

For CC(C)C[C@@H](O)C(=O)N1CC(F)(F)C[C@H]1C(=O)N[C@@H](C[C@@H]1CCNC1=O)C(=O)COC(F)(F)F [Compound 751, (S)-4,4-difluoro-1-((R)-2-hydroxy-4-methylpentanoyl)-N-((S)-3-oxo-1-((S)-2-oxopyrrolidin-3-yl)-4-(trifluoromethoxy)butan-2-yl)pyrrolidine-2-carboxamide], the EC50 [1] was 0.05 to 0.2 µM.

COc1cccc2cc(C(=O)N[C@@H](CC(C)C)C(=O)N[C@@H](C[C@@H]3CCNC3=O)C(=O)COC(F)(F)F)oc12 [Compound 466, 7-methoxy-N-((S)-4-methyl-1-oxo-1-(((S)-3-oxo-1-((S)-2-oxopyrrolidin-3-yl)-4-(trifluoromethoxy)butan-2-yl)amino)pentan-2-yl)benzofuran-2-carboxamide] was tested, and the EC50 [1] was < 0.05 µM.

With CC1(C(=O)N2C[C@@H]3CCC[C@@H]3[C@H]2C(=O)N[C@@H](C[C@@H]2CCNC2=O)C(=O)COC(F)(F)F)CCCO1 (stereo partly drawn) [Compound 310, (1S,3aR,6aS)-2-(2-methyltetrahydrofuran-2-carbonyl)-N-((S)-3-oxo-1-((S)-2-oxopyrrolidin-3-yl)-4-(trifluoromethoxy)butan-2-yl)octahydro-cyclopenta[c]pyrrole-1-carboxamide] the EC50 (HeLa-ACE2 cells, SARS-CoV-2 infection, 24 h, bound printed in cell) was > 1 µM.

C[C@H](C(=O)N1C[C@H]2[C@@H]([C@H]1C(=O)N[C@@H](C[C@@H]1CCNC1=O)C(=O)COC(F)(F)F)C2(C)C)c1ccccc1 [Compound 629, (1R,2S,5S)-6,6-dimethyl-N-((S)-3-oxo-1-((S)-2-oxopyrrolidin-3-yl)-4-(trifluoromethoxy)butan-2-yl)-3-((S)-2-phenylpropanoyl)-3-azabicyclo[3.1.0]hexane-2-carboxamide] was tested, and the EC50 [1] was < 0.05 µM.

For CC(C)C[C@H](NC(=O)c1cc2ccccc2[nH]1)C(=O)N[C@@H](C[C@@H]1CCNC1=O)C(=O)COc1c(F)c(F)cc(F)c1F [Compound 4, N-((S)-4-methyl-1-oxo-1-(((S)-3-oxo-1-((S)-2-oxopyrrolidin-3-yl)-4-(2,3,5,6-tetrafluorophenoxy)butan-2-yl)amino)pentan-2-yl)-1H-indole-2-carboxamide], the EC50 [2] was < 0.05 µM.

In the case of CC1(NC(=O)C(=O)N[C@@H](CC2CC2)C(=O)N[C@@H](C[C@@H]2CCNC2=O)C(=O)COC(F)(F)F)CC1 [Compound 585, N1-((S)-3-cyclopropyl-1-oxo-1-(((S)-3-oxo-1-((S)-2-oxopyrrolidin-3-yl)-4-(trifluoromethoxy)butan-2-yl)amino)propan-2-yl)-N2-(1-methylcyclo-propyl)oxalamide], the EC50 [1] is reported as < 0.05 µM.

With O=C(Nc1ccccc1)C(=O)N[C@@H](CC1CCCCC1)C(=O)N[C@@H](C[C@@H]1CCNC1=O)C(=O)COc1c(F)c(F)cc(F)c1F [Compound 35, N1-((S)-3-cyclohexyl-1-oxo-1-(((S)-3-oxo-1-((S)-2-oxopyrrolidin-3-yl)-4-(2,3,5,6-tetrafluorophenoxy)butan-2-yl)amino)propan-2-yl)-N2-phenyloxalamide] the EC50 [2] was < 0.05 µM.

O=C1NCC[C@H]1C[C@H](NC(=O)[C@@H]1CC2(CC2)CN1C(=O)c1ccccc1)C(=O)COC(F)(F)F [Compound 694, (S)-5-benzoyl-N-((S)-3-oxo-1-((S)-2-oxopyrrolidin-3-yl)-4-(trifluoromethoxy)butan-2-yl)-5-azaspiro[2.4]heptane-6-carboxamide] was tested, and the EC50 [1] was 0.05 to 0.2 µM.

CC(C)(C)[C@H](NC(=O)C(F)(F)F)C(=O)N1CC2(CC2)C[C@H]1C(=O)N[C@@H](C[C@@H]1CCNC1=O)C(=O)COC(F)(F)F [Compound 441, (S)-5-((S)-3,3-dimethyl-2-(2,2,2-trifluoroacetamido)butanoyl)-N—((S)-3-oxo-1-((S)-2-oxopyrrolidin-3-yl)-4-(trifluoromethoxy)butan-2-yl)-5-azaspiro[2.4]heptane-6-carboxamide] was tested, and the EC50 was < 0.05 µM.

CC(C)(F)c1cc(C(=O)N[C@@H](CC2CC2)C(=O)N[C@@H](C[C@@H]2CCNC2=O)C(=O)COC(F)(F)F)no1 [Compound 490, N-((S)-3-cyclopropyl-1-oxo-1-(((S)-3-oxo-1-((S)-2-oxopyrrolidin-3-yl)-4-(trifluoromethoxy)butan-2-yl)amino)propan-2-yl)-5-(2-fluoropropan-2-yl)isoxazole-3-carboxamide] was tested, and the EC50 [1] was < 0.05 µM.

For O=C1NCC[C@H]1C[C@H](NC(=O)[C@@H]1CC2(CC2)CN1C(=O)c1cc(C(F)F)on1)C(=O)COC(F)(F)F [Compound 572, (S)-5-(5-(difluoromethyl)-isoxazole-3-carbonyl)-N-((S)-3-oxo-1-((S)-2-oxopyrrolidin-3-yl)-4-(trifluoromethoxy)butan-2-yl)-5-azaspiro[2.4]-heptane-6-carboxamide], the EC50 [1] was < 0.05 µM.

Compound O=C(NCC(F)F)C(=O)N1C[C@@H]2CCC[C@@H]2[C@H]1C(=O)N[C@@H](C[C@@H]1CCNC1=O)C(=O)COC(F)(F)F [Compound 519, (1S,3aR,6aS)-2-(2-((2,2-difluoroethyl)amino)-2-oxoacetyl)-N-((S)-3-oxo-1-((S)-2-oxopyrrolidin-3-yl)-4-(trifluoromethoxy)butan-2-yl)octahydrocyclo-penta[c]pyrrole-1-carboxamide] has an EC50 [1] of 0.2 to 0.5 µM.

CC(C)[C@H](O)[C@@H](O)C(=O)N1CC2(CC2)C[C@H]1C(=O)N[C@@H](C[C@@H]1CCNC1=O)C(=O)COC(F)(F)F [Compound 726, (S)-5-((2R,3S)-2,3-dihydroxy-4-methylpentanoyl)-N-((S)-3-oxo-1-((S)-2-oxopyrrolidin-3-yl)-4-(trifluoromethoxy)butan-2-yl)-5-azaspiro[2.4]heptane-6-carboxamide] showed an EC50 [1] of 0.2 to 0.5 µM.
